Drawing on BindingDB's records for doi:10.1016/j.bmcl.2006.02.011 (Zhengzhou University, 2006), this text covers IC50 for six molecules.

In general, IC50 refers to the concentration at which inhibition is half-maximal. A high value points to a need for much substance.

This assay has as its target Maltase-glucoamylase (Homo sapiens, UniProt O43451). In words: Inhibition of alpha glucosidase.

Sequence of Maltase-glucoamylase (O43451 whole entry): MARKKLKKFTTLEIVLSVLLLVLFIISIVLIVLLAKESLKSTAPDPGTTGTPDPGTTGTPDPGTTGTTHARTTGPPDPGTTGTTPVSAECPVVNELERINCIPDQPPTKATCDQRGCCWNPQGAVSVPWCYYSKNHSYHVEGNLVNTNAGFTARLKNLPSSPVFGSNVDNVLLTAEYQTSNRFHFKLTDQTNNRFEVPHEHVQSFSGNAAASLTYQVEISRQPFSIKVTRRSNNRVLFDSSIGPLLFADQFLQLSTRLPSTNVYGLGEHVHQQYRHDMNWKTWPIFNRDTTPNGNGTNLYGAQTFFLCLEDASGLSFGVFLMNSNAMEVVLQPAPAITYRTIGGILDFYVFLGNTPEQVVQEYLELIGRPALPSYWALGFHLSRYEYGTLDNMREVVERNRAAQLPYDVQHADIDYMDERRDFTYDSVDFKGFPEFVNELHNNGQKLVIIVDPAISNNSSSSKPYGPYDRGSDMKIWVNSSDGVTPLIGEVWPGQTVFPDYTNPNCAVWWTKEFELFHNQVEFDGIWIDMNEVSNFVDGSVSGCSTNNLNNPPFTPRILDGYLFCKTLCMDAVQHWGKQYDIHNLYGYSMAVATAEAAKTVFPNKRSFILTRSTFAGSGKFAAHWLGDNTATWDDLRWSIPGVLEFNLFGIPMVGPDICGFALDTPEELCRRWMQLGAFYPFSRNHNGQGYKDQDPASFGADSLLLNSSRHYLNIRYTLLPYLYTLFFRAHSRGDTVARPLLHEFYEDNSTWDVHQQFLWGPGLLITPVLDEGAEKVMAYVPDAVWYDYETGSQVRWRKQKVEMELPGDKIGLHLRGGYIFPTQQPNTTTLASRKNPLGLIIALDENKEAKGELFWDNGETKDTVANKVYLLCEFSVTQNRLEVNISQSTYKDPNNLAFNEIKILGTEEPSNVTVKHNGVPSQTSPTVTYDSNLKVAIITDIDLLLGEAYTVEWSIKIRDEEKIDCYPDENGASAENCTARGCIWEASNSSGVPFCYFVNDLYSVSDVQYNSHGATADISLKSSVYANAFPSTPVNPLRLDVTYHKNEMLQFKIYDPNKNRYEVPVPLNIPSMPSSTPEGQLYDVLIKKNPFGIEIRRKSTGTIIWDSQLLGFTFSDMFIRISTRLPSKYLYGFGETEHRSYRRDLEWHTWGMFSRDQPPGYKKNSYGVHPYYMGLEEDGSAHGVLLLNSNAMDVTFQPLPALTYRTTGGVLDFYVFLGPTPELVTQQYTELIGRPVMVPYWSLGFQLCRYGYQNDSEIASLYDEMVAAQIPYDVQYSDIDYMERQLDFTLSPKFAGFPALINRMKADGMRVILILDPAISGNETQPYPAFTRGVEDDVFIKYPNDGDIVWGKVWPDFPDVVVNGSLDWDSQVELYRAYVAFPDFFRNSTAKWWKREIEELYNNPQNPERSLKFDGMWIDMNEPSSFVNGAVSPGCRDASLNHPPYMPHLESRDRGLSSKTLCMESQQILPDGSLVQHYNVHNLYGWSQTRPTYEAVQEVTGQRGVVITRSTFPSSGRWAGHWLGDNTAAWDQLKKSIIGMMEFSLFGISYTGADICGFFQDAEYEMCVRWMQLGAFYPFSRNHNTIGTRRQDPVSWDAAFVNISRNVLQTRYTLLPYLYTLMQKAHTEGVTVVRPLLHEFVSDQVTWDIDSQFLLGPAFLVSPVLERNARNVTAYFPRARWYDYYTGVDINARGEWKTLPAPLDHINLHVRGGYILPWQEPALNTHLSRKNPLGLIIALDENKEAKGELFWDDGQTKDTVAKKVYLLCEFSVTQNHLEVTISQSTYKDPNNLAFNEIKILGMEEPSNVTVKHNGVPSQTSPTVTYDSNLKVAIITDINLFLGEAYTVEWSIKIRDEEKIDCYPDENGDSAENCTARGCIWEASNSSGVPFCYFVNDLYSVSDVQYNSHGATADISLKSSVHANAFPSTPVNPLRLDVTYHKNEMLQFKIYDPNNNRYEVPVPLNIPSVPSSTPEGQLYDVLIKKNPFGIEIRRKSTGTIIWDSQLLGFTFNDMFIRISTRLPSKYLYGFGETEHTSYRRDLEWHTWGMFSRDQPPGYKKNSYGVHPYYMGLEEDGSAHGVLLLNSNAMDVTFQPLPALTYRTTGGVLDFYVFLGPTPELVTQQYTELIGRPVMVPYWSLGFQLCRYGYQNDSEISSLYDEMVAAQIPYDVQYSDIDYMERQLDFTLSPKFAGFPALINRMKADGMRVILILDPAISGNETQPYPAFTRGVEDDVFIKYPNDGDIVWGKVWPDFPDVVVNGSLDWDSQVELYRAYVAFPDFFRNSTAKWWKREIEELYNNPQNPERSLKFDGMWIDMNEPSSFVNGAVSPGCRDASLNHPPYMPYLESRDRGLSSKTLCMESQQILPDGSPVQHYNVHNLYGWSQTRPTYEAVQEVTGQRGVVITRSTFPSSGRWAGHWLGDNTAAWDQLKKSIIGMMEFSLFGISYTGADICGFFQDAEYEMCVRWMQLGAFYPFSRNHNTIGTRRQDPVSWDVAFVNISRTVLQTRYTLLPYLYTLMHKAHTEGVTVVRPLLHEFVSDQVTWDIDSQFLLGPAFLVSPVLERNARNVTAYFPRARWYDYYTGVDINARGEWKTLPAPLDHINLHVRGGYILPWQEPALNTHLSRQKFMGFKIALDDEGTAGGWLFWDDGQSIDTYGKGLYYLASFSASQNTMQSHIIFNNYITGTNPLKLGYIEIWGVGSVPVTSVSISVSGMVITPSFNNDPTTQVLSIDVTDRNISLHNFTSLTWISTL

On to `C=C1CC[C@@H]2[C@](C)(CO)[C@H](O)CC[C@@]2(C)[C@@H]1/C=C/C1=CC(=C/C=C/c2ccccc2)/OC1=O` [3-(2-((1R,4aS,5R,6R,8aR)-6-hydroxy-5-(hydroxymethyl)-5,8a-dimethyl-2-methylene-decahydronaphthalen-1-yl)vinyl)-5-(3-phenylallylidene)furan-2(5H)-one], for which it took 58 µM to reach half-maximal inhibition (IC50).

In turn, `C=C1CC[C@@H]2[C@](C)(CO)[C@H](O)CC[C@@]2(C)[C@@H]1/C=C/C1=CC(=C/CCC)/OC1=O` [5-butylidene-3-(2-((1R,4aS,5R,6R,8aR)-6-hydroxy-5-(hydroxymethyl)-5,8a-dimethyl-2-methylene-decahydronaphthalen-1-yl)vinyl)furan-2(5H)-one] returned an IC50 of 110 µM.

Molecule `C[C@]1(CO)[C@H]2CC[C@@]3(CO3)[C@@H](/C=C/C3=CC(=C/C=C/c4ccccc4)/OC3=O)[C@]2(C)CC[C@H]1O` [(5Z)-3-[(E)-2-[(1S,2S,4aS,5R,6R,8aR)-6-hydroxy-5-(hydroxymethyl)-5,8a-dimethyl-octahydro-1H-spiro[naphthalene-2,2'-oxirane]-1-yl]ethenyl]-5-[(2E)-3-phenylprop-2-en-1-ylidene]-2,5-dihydrofuran-2-one] displayed a 50% inhibitory concentration (IC50) of 101 µM.

In the case of `COc1ccc(/C=C2C=C(/C=C/[C@@H]3[C@@]4(CC[C@@H]5[C@](C)(CO)[C@H](O)CC[C@]53C)CO4)C(=O)O/2)cc1` [(5Z)-3-[(E)-2-[(1S,2S,4aS,5R,6R,8aR)-6-hydroxy-5-(hydroxymethyl)-5,8a-dimethyl-octahydro-1H-spiro[naphthalene-2,2'-oxirane]-1-yl]ethenyl]-5-[(4-methoxyphenyl)methylidene]-2,5-dihydrofuran-2-one], the IC50 is 120 µM.

`C=C1CC[C@@H]2[C@]3(C)COC(c4cccc(Br)c4)O[C@@H]3CC[C@@]2(C)[C@@H]1C/C=C1/C(=O)OC[C@H]1O` (stereo partly drawn) [(S)-3-(2-((4aR,6aS,7R,10aS,10bR)-3-(3-bromophenyl)-6a,10b-dimethyl-8-methylene-decahydro-1H-naphtho[2,1-d][1,3]dioxin-7-yl)ethylidene)-4-hydroxy-dihydrofuran-2(3H)-one] showed a 50% inhibitory concentration (IC50) of 100 µM.

For the molecule `C=C1CC[C@@H]2[C@]3(C)COC(c4ccccc4)O[C@@H]3CC[C@@]2(C)[C@@H]1C/C=C1/C(=O)OC[C@H]1O` (stereo partly drawn) [(S)-3-(2-((4aR,6aS,7R,10aS,10bR)-6a,10b-dimethyl-8-methylene-3-phenyl-decahydro-1H-naphtho[2,1-d][1,3]dioxin-7-yl)ethylidene)-4-hydroxy-dihydrofuran-2(3H)-one], the IC50 is 101 µM.
